The values that follow come from patent USRE47689E1, “Compounds for treating spinal muscular atrophy” (PTC Therapeutics, Inc., priority 2011, dated 2019).

Counter-ions that a name gives are not always drawn. Like-named read-outs stand apart in the source and are kept apart here.

The test system of data set [1] is SMN2 minigene (full length SMN2 minigene mRNA containing SMN2 exon 7). Nature of the data set: SMN2 minigene mRNA splicing RT-qPCR assay in cultured cells. The format is cell-based, human. The conditions noted are these: Homo sapiens, HEK293-H, read-out: EC1.5x for production of full length SMN2 mRNA. The essentials:
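HEK293H cells stably carrying the SMN2-A minigene treated 24 h at 37° C with compound (DMSO, 200× stock), then lysed. Multiplex RT-qPCR (SMN primers 0.4 μM final; 40 cycles) measures full-length exon 7-containing minigene mRNA, normalized to GAPDH and to vehicle; EC1.5x derived and binned by stars.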
(In general: In qPCR the cycle at which signal appears reflects the starting amount.)

In a further data set the test system is Smn protein. As to the kind of experiment: Smn protein assay in cultured cells (SMN HTRF). The format is cell-based, human. The conditions noted are these: 48 hours; for EC1.5x (concentration giving 1.5-fold Smn protein increase): SMA Type 1 patient fibroblast cells (GM03813), 7-point concentration curve, SMN HTRF, concentration producing 1.5 times Smn protein vs DMSO vehicle control, read-out: EC1.5x for Smn protein expression; for maximum fold (Fold) increase of Smn protein: SMA patient fibroblast cells, 7-point concentration data, fold increase relative to vehicle control (SMN HTRF). The essentials: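 Lysates in RIPA with protease inhibitors are incubated overnight at room temperature with HTRF anti-SMN antibodies. EC1.5x is derived from fold increase in ΔF over vehicle.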

The mark [2] stands for this setting: HEK293H cells stably transfected with SMN2-A minigene, 24 hours, 7-point concentration curve, 1.5-fold relative to vehicle-treated cells.

Regarding `CN1CCN(c2ccc3cc(-c4cccc(C(F)(F)F)c4)c(=O)oc3c2)CC1` [Compound 11, 7-(4-methylpiperazin-1-yl)-3-[3-(trifluoromethyl)phenyl]-2H-chromen-2-one], the melting point fell in the range of 150 to 156 °C. Further, the EC (1.5-fold) in data set [1] (setting [2]) lay in the range of 3 to 30 µM.
`Cc1cccc2oc(-c3cc4ccc(N5CCN(C)CC5)cc4oc3=O)nc12` [Compound 21, 3-(4-methyl-1,3-benzoxazol-2-yl)-7-(4-methylpiperazin-1-yl)-2H-chromen-2-one] showed a melting point of 217 to 219 °C. Besides, in data set [1] (setting [2]), the EC (1.5-fold) lay in the range of 3 to 30 µM.
Take `Cc1cccn2cc(-c3cc4ccc(N5CCNCC5)cc4oc3=O)nc12` [Compound 44, 3-(8-methylimidazo[1,2-a]pyridin-2-yl)-7-(piperazin-1-yl)-2H-chromen-2-one]: the melting point fell in the range of 190 to 193 °C. For the same compound, in data set [1] (setting [2]), the EC (1.5-fold) was 0.3 to 1 µM.
With `O=c1oc2cc(N3CCNCC3)ccc2cc1-c1nc2ccccc2s1` (as salt: hydrochloride) [Cpd 4, 3-(1,3-benzothiazol-2-yl)-7-(piperazin-1-yl)-2H-chromen-2-one hydrochloride], the melting point was 250 °C (dec.).
Turning to `Cc1cccn2cc(-c3cc4ccc(N5CCN(CCO)CC5)cc4oc3=O)nc12` [Compound 102, 7-[4-(2-hydroxyethyl)piperazin-1-yl]-3-(8-methylimidazo[1,2-a]pyridin-2-yl)-2H-chromen-2-one], the melting point lay within 210 to 212 °C. Also, the EC (1.5-fold) in data set [1] (setting [2]) fell in the range of 1 to 3 µM.
As to `Cc1cn2cc(-c3cc4ccc(C5=CCNCC5)cc4oc3=O)nc2c(C)n1`, the melting point was 205 to 211 °C.
`O=c1oc2cc(N3CCNCC3)ccc2cc1Nc1ncccn1` [Compound 33, 7-(piperazin-1-yl)-3-(pyrimidin-2-ylamino)-2H-chromen-2-one] came in with a melting point of 193 to 195 °C. Besides, the EC (1.5-fold) in data set [1] (24 h) was 3 to 30 µM.
The matching figures for `O=c1oc2cc(N3CCNCC3)ccc2cc1Nc1ccccn1` [Cpd 32, 7-(piperazin-1-yl)-3-(pyridin-2-ylamino)-2H-chromen-2-one]: 191 to 194 °C and 3 to 30 µM.
Regarding `O=c1oc2cc(OC3CCNC3)ccc2cc1-c1cn2cccnc2n1` (stereo in doubt) (as salt: hydrochloride) [Cpd 321, 3-(imidazo[1,2-a]pyrimidin-2-yl)-7-[(3R)-pyrrolidin-3-yloxy]-2H-chromen-2-one hydrochloride (1:2)], the melting point lay within 240 to 250 °C.
On the same count and under the same terms, then `Cc1ccn2cc(-c3cc4ccc(O[C@@H]5CCNC5)cc4oc3=O)nc2c1` (as salt: hydrochloride) [Compound 323, 3-(7-methylimidazo[1,2-a]pyridin-2-yl)-7-[(3R)-pyirolidin-3-yloxy]-2H-chromen-2-one hydrochloride (1:2)], with 271 to 275 °C; and `O=c1oc2cc(N3CCNCC3)ccc2cc1-c1nc2c(Cl)cccc2s1` (as salt: hydrochloride) [Cpd 5, 3-(4-chloro-1,3-benzothiazol-2-yl)-7-(piperazin-1-yl)-2H-chromen-2-one hydrochloride], with 290 °C (dec.).
Still for that read-out and setting: then `Cl.O=c1oc2cc(N3CCNCC3)ccc2cc1-c1nc2cccc(C(F)(F)F)c2o1`, with 297 to 307 °C; and `Cl.O=c1oc2cc(N3CCNCC3)ccc2cc1-c1nc2c(C(F)(F)F)cccc2o1`, with 339 to 341 °C.
Same read-out and setting: then `O=c1oc2cc(N3C[C@@H]4C[C@H]3CN4)ccc2cc1-c1cn2cccnc2n1` (as salt: hydrochloride) [Compound 129, 7-[(1S,4S)-2,5-diazabicyclo[2.2.1]hept-2-yl]-3-(imidazo[1,2a]pyrimidin-2-yl)-2H-chromen-2-one hydrochloride (1:3)], with greater than 300 °C.
As for `Cc1cn2cc(-c3cc4ccc(N5CC6(CNC6)C5)cc4oc3=O)cc(F)c2n1` [Compound 985, 7-(2,6-diazaspiro[3.3]hept-2-yl)-3-(8-fluoro-2-methylimidazo[1,2-a]pyridin-6-yl)-2H-chromen-2-one], the EC (1.5-fold) in data set [1] (setting [2]) was less than 0.1 µM. For the same compound, in the data set on Smn protein, the EC1.5x (concentration giving 1.5-fold Smn protein increase) is less than 300 nM and the “maximum fold (Fold) increase of Smn protein” value (“maximum fold (Fold) increase” below) is “***** (fold increase >1.65)”.
Consider `CN1CCN(c2ccc3cc(-c4nc5ncccc5o4)c(=O)oc3c2)CC1` [Compound 111, 7-(4-methylpiperazin-1-yl)-3-([1,3]oxazolo[4,5-b]pyridin-2-yl)-2H-chromen-2-one], for which the EC (1.5-fold) in data set [1] (setting [2]) lay in the range of 3 to 30 µM. In the data set with Smn protein, the “maximum fold (Fold) increase” value was “** (fold increase between >1.2 and ≤1.35)”.
`O=c1oc2cc(N3CCNCC3)ccc2cc1-c1cn2ccccc2n1` [Compound 34, 3-(imidazo[1,2-a]pyridin-2-yl)-7-(piperazin-1-yl)-2H-chromen-2-one]: in data set [1] (setting [2]), the EC (1.5-fold) was in the range of 0.3 to 1 µM. Further, the “maximum fold (Fold) increase” value with Smn protein is “** (fold increase between >1.2 and ≤1.35)”.
For `Cc1cc2oc(-c3cc4ccc(N5CCN(C)CC5)cc4oc3=O)cc2c(C)n1` [Compound 832, 3-(4,6-dimethylfuro[3,2-c]pyridin-2-yl)-7-(4-methylpiperazin-1-yl)-2H-chromen-2-one], in data set [1] (setting [2]), the EC (1.5-fold) fell in the range of 1 to 3 µM. Moreover, in the data set on Smn protein, the “maximum fold (Fold) increase” value is listed as “* (maximum fold increase of ≤1.2)”.
The matching figures for `C[C@@H]1CN(c2ccc3cc(-c4cc5ncccn5c4)c(=O)oc3c2)C[C@H](C)N1` [Compound 580, 7-[(3R,5S)-3,5-dimethylpiperazin-1-yl]-3-(pyrrolo[1,2-a]pyrimidin-7-yl)-2H-chromen-2-one]: 1 to 3 µM and “* (maximum fold increase of ≤1.2)”.
`O=C(Nc1ccccc1)c1cc2ccc(N3CCNCC3)cc2oc1=O` (as salt: trifluoroacetate) [Cpd 3, 2-oxo-N-phenyl-7-(piperazin-1-yl)-2H-chromene-3-carboxamide trifluoroacetate] registered a melting point of 238 to 248 °C.
Take `CC[C@H]1CN(c2ccc3cc(-c4cn5cc(C)nc(C)c5n4)c(=O)oc3c2)CCN1` [Compound 772, 3-(6,8-dimethylimidazo[1,2-a]pyrazin-2-yl)-7-[(3S)-3-ethylpiperazin-1-yl]-2H-chromen-2-one]: the EC (1.5-fold) in data set [1] (setting [2]) is less than 0.1 µM. Moreover, in the data set with Smn protein, the EC1.5x (concentration giving 1.5-fold Smn protein increase) is less than 300 nM and the “maximum fold (Fold) increase” value is listed as “***** (fold increase >1.65)”.
With `Cc1cn2cc(-c3cc4ccc(N5CC6CC5CN6)cc4oc3=O)cc2cn1` (stereo not drawn) [Compound 744, 7-(2,5-diazabicyclo[2.2.1]hept-2-yl)-3-(3-methylpyrrolo[1,2-a]pyrazin-7-yl)-2H-chromen-2-one], the EC (1.5-fold) in data set [1] (setting [2]) was less than 0.1 µM. Also, in the data set on Smn protein, the “maximum fold (Fold) increase” value is “** (fold increase between >1.2 and ≤1.35)”.
As to `Cc1cn2cc(-c3cc4ccc(C5CCN(C6COC6)CC5)cc4oc3=O)nc2cn1` [Compound 878, 3-(6-methylimidazo[1,2-a]pyrazin-2-yl)-7-[1-(oxetan-3-yl)piperidin-4-yl]-2H-chromen-2-one], the EC (1.5-fold) in data set [1] (setting [2]) is less than 0.1 µM. Also, in the data set with Smn protein, the EC1.5x (concentration giving 1.5-fold Smn protein increase) is 300 to 1000 nM and the “maximum fold (Fold) increase” value was “***** (fold increase >1.65)”.
For `Cc1cn2cc(-c3cc4ccc(C5CCNCC5)cc4oc3=O)ccc2n1` [Cpd 825, 3-(2-methylimidazo[1,2-a]pyridin-6-yl)-7-(piperidin-4-yl)-2H-chromen-2-one] the same measures were less than 0.1 µM, less than 300 nM and “***** (fold increase >1.65)”.
Turning to `Cl.O=c1oc2cc(N3CCNCC3)ccc2cc1-c1nc2c(F)cccc2o1` [Compound 40, 3-(4-fluoro-1,3-benzoxazol-2-yl)-7-(piperazin-1-yl)-2H-chromen-2-one hydrochloride], the EC (1.5-fold) in data set [1] (setting [2]) is 1 to 3 µM. Further, the “maximum fold (Fold) increase” value in the data set on Smn protein was “** (fold increase between >1.2 and ≤1.35)”.
As for `Cc1nccn2cc(-c3cc4ccc(N5CCN[C@@H](C)C5)cc4oc3=O)nc12` [Compound 573, 3-(8-methylimidazo[1,2-a]pyrazin-2-yl)-7-[(3S)-3-methylpiperazin-1-yl]-2H-chromen-2-one], in data set [1] (setting [2]), the EC (1.5-fold) lay within 0.3 to 1 µM. Further, in the data set with Smn protein, the EC1.5x (concentration giving 1.5-fold Smn protein increase) was less than 300 nM; the “maximum fold (Fold) increase” value is “**** (fold increase between >1.5 and ≤1.65)”.
With `CC1CN(c2ccc3cc(-c4nc5ccccc5o4)c(=O)oc3c2)C(C)CN1` (stereo not drawn) [Compound 86, 3-(1,3-benzoxazol-2-yl)-7-(2,5-dimethylpiperazin-1-yl)-2H-chromen-2-one], the EC (1.5-fold) in data set [1] (setting [2]) was 3 to 30 µM. Also, the “maximum fold (Fold) increase” value in the data set on Smn protein is “* (maximum fold increase of ≤1.2)”.
For `O=c1oc2cc(N3CCNCC3)ccc2cc1-c1nc2c(Cl)cccc2s1` [Cpd 5, 3-(4-chloro-1,3-benzothiazol-2-yl)-7-(piperazin-1-yl)-2H-chromen-2-one hydrochloride] the same measures were 0.3 to 1 µM and “* (maximum fold increase of ≤1.2)”.
Turning to `CN1CCN(c2ccc3cc(-c4ccc5nccn5c4)c(=O)oc3c2)CC1` [Compound 978, 3-(imidazo[1,2-a]pyridin-6-yl)-7-(4-methylpiperazin-1-yl)-2H-chromen-2-one], the EC (1.5-fold) in data set [1] (setting [2]) was in the range of 1 to 3 µM. For the same compound, in the data set on Smn protein, the “maximum fold (Fold) increase” value was “** (fold increase between >1.2 and ≤1.35)”.

The melting point is the temperature, or range, at which the solid turns liquid.
